5 compounds from ChEMBL document CHEMBL1201862, “PubChem BioAssay data set” (2004) can be followed below.

Calls of active or inactive are those of the source.

Experiment [1] addresses Delta-type opioid receptor (Homo sapiens, UniProt P41143). Nature of the experiment: SAR Analysis of Agonists of the DOR Receptor using an Image-Based Assay - Set 3. [Related pubchem assays (depositor defined):AID1777, AID1786]. It counts as functional.
In experiment [2] the target is Mu-type opioid receptor (Homo sapiens, UniProt P35372). Nature of the experiment: SAR Analysis of Agonists of the MOR Receptor using an Image-Based Assay - Set 3. [Related pubchem assays (depositor defined):AID1777, AID1785, AID1786, AID1966, AID2133, AID2136, AID2284, AID2285, AID2352]. It counts as functional.
Sequence of Mu-type opioid receptor (P35372 whole entry): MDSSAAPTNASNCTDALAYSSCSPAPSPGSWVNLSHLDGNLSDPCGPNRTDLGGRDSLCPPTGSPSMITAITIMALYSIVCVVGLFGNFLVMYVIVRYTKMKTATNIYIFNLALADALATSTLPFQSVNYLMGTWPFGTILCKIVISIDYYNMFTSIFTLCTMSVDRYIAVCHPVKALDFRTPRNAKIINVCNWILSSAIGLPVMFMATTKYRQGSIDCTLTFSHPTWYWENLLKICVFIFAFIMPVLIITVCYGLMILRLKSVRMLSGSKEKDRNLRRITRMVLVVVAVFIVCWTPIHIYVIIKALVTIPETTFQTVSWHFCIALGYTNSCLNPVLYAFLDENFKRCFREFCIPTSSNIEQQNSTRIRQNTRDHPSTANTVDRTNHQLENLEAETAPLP
The target in experiment [3] is T1, Kappa-type opioid receptor (Homo sapiens, UniProt P41145). Briefly: kappa opioid receptor activation by imaging – image-based, set 3, SAR follow-up (AID 488833). It counts as functional.
T1 sequence (P41145 whole entry): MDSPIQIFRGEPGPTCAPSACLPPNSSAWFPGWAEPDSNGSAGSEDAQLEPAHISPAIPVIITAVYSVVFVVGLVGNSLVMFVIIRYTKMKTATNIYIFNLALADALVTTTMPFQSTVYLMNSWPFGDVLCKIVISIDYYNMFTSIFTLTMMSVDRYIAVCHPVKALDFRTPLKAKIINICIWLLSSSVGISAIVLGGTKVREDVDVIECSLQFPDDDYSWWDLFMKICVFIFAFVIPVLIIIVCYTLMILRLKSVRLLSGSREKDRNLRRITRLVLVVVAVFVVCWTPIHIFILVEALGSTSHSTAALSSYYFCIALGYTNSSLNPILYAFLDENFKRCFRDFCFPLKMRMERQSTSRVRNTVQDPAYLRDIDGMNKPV
The target of experiment [4] is T1, Kappa-type opioid receptor. Nature of the experiment: SAR analysis of small molecule agonists of the kappa opioid receptor via a luminescent beta-arrestin assay - Set 3. [Related pubchem assays (depositor defined):AID1777, AID1785, AID1786, AID1966, AID2133, AID2136, AID2284, AID2500]. It counts as functional.
The target in experiment [5] is Lysine-specific demethylase 4A (Homo sapiens, UniProt O75164). Nature of the experiment: inhibition of JMJD2A H3K9me3 demethylation – biochemical, DELFIA europium, cherry-picked samples, selectivity assay for GASC-1 inhibitor project, dose response (AID 488840).
Experiment [6] has as its target T2, Hexokinase HKDC1 (Homo sapiens, UniProt Q2TB90).
T2 sequence (Q2TB90 whole entry): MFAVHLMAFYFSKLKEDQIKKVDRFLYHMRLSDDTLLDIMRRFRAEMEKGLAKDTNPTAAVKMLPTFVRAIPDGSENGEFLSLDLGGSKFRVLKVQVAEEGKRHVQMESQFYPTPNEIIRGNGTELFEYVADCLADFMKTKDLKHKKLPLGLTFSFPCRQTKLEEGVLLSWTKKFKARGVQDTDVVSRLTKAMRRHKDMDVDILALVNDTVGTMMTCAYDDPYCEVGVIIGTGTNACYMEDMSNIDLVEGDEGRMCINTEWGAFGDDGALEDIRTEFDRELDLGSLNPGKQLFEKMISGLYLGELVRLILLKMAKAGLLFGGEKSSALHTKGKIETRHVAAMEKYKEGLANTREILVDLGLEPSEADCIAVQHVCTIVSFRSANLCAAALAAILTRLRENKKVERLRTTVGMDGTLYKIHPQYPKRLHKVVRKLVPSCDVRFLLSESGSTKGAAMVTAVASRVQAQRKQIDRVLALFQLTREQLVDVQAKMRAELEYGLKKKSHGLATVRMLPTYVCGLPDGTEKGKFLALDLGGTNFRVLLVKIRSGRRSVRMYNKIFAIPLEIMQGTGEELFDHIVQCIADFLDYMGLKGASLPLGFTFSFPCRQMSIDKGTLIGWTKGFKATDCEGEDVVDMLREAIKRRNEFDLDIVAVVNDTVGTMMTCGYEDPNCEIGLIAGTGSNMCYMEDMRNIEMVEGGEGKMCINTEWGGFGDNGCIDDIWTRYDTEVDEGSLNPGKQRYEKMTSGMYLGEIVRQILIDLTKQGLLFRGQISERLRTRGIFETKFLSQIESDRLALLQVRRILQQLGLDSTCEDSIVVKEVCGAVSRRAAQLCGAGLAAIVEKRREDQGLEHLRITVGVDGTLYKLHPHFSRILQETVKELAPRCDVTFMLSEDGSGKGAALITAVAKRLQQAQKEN
Briefly: inhibition of HKDC1 glucose phosphorylation – biochemical, W721R variant, dose response (AID 504729). It counts as functional.

Experiment [7] addresses Intestinal-type alkaline phosphatase (Mus musculus, UniProt P24822). Briefly: PubChem AID 488785. It counts as functional.
The target of experiment [8] is T3, Alkaline phosphatase, tissue-nonspecific isozyme (Homo sapiens, UniProt P05186).
T3 sequence (P05186 whole entry): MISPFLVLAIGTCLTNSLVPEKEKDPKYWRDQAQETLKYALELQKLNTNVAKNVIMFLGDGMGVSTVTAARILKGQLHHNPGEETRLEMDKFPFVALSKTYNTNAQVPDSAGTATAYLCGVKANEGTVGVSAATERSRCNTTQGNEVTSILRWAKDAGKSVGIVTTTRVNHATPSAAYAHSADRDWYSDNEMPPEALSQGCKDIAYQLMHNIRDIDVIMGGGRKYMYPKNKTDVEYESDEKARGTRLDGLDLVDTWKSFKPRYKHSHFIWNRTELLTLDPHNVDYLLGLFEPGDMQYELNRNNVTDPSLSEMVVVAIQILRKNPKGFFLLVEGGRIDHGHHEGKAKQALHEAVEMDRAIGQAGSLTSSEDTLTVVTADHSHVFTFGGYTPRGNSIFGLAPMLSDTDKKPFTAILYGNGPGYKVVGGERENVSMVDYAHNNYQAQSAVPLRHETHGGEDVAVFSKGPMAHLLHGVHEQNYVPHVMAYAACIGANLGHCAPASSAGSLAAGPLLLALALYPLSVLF
Nature of the experiment: TNAP enzyme inhibition by screening hits, dose response, selectivity assay for mouse IAP inhibitor project, biochemical, human TNAP, uHTS hits (AID 488906). It counts as functional.

The target of experiment [9] is Intestinal-type alkaline phosphatase (Homo sapiens, UniProt P09923). Nature of the experiment: inhibition of human intestinal alkaline phosphatase – biochemical, dose response (AID 488876). It counts as functional.
Sequence of Intestinal-type alkaline phosphatase (Homo sapiens, UniProt P09923) (P09923 whole entry): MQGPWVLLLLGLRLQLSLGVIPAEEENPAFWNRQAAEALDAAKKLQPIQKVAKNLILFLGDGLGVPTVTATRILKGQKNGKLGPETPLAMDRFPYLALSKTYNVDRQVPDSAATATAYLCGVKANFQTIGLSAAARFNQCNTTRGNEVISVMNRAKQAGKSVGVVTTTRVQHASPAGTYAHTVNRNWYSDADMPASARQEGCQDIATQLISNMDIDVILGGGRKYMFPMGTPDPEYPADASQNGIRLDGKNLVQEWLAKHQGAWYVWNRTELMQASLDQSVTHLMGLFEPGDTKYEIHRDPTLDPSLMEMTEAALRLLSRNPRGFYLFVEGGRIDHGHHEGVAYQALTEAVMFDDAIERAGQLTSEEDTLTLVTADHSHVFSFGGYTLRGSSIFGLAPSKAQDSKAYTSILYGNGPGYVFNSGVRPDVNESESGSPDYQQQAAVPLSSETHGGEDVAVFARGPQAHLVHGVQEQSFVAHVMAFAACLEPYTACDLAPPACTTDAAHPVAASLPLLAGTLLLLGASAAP
Experiment [10] is described as follows: HPDE-C7 pancreatic duct cell viability loss – fluorescence, HTS (AID 430). It counts as functional, cell-based. The settings on record: Homo sapiens.
A short description of experiment [11]: viability loss of HPDE-C7K cells – cell-based, fluorescence, HTS, primary screen (AID 431). The settings on record: Homo sapiens. It counts as functional.
In experiment [12] the target is Sphingosine 1-phosphate receptor 1 (Homo sapiens, UniProt P21453). Briefly: Fluorescence-based counterscreen assay for S1P4 agonists: Cell-based dose response high throughput screening assay to identify agonists of the Sphingosine 1-Phosphate Receptor 1 (S1P1). [Related pubchem assays (depositor defined):AID1509, AID1523, AID1801, AID463107, AID463118, AID463119, AID463122, AID463123, AID463129, AID463225, AID504400, AID504460]. It counts as functional. Background: The purpose of a counterscreen is to sort out artefacts and off-target activity.
Sequence of Sphingosine 1-phosphate receptor 1 (P21453 whole entry): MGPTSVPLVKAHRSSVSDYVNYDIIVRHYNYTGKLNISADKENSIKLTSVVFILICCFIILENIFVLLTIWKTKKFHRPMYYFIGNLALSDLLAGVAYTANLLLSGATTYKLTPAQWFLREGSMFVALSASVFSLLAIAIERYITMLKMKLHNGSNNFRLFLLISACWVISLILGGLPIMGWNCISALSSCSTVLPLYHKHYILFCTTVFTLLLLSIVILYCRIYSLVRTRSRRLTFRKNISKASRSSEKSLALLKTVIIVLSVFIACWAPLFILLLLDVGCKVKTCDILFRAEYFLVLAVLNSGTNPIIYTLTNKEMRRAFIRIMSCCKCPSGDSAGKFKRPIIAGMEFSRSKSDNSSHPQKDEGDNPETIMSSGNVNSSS

For experiment [13], the target named is Sphingosine 1-phosphate receptor 4 (Homo sapiens, UniProt O95977). Briefly: Fluorescence dose response cell-based high throughput screening assay for agonists of the Sphingosine 1-Phosphate Receptor 4 (S1P4). [Related pubchem assays: 1509 (Primary screen.), 1523 (Confirmation screen in triplicates.)]. It counts as functional.
Sequence of Sphingosine 1-phosphate receptor 4 (O95977 whole entry): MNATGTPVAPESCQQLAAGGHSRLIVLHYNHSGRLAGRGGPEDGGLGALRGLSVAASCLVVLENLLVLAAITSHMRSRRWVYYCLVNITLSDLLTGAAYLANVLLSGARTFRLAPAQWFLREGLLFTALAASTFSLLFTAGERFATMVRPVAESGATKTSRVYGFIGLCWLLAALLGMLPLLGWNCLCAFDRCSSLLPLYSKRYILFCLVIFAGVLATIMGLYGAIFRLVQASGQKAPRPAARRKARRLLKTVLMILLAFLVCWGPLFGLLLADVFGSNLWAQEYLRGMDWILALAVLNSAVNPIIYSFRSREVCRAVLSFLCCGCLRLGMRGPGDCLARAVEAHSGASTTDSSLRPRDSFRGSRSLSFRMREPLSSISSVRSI
Experiment [14] concerns the target T4, Short transient receptor potential channel 4 (Mus musculus, UniProt Q9QUQ5).
T4 sequence (Q9QUQ5 whole entry): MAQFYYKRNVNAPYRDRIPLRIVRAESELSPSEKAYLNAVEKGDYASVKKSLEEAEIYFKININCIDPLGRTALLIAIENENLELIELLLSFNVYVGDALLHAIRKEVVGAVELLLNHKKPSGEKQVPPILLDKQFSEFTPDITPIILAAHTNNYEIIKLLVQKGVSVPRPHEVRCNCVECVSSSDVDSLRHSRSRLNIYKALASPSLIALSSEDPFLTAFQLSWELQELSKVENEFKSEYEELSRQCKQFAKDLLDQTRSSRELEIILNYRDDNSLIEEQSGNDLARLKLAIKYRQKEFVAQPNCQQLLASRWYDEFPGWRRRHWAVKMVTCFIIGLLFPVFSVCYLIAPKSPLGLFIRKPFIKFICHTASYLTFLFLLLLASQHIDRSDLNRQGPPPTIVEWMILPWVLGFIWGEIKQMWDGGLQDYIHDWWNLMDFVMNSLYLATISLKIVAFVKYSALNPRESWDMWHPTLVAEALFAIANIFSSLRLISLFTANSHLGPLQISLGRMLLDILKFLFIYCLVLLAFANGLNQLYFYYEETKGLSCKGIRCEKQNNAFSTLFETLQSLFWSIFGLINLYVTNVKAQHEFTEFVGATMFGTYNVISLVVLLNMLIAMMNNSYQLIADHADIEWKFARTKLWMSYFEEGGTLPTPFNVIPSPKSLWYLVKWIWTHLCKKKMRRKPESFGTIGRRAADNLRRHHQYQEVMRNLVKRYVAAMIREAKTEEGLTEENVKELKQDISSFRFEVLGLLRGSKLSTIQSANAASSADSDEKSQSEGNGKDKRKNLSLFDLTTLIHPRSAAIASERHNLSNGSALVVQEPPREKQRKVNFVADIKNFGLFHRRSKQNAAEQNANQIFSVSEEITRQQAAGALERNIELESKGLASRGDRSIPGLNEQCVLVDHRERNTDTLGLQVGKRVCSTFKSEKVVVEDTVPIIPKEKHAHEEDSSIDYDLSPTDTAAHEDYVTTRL
Briefly: calcium entry via TRPC4 opening agents – cell-based, HEK293 TRPC4/mu-opioid, Fluo-4 calcium, dose response (AID 434937). It counts as functional.

Experiment [15] concerns the target Sphingosine 1-phosphate receptor 2 (Homo sapiens, UniProt O95136). Briefly: Dose Response Cell Based Assay for Agonists of the S1P2 Receptor. [Related pubchem assays: 729, 736, 843 ]. It counts as functional.
In experiment [16] the target is T5, Cannabinoid receptor 2 (Homo sapiens, UniProt P34972). Briefly: SAR analysis of antagonists of the Cannabinoid Receptor 2 using an Image-Based Assay - Set 2. [Related pubchem assays (depositor defined):AID1961, AID1965]. It counts as functional.
T5 sequence (P34972 whole entry): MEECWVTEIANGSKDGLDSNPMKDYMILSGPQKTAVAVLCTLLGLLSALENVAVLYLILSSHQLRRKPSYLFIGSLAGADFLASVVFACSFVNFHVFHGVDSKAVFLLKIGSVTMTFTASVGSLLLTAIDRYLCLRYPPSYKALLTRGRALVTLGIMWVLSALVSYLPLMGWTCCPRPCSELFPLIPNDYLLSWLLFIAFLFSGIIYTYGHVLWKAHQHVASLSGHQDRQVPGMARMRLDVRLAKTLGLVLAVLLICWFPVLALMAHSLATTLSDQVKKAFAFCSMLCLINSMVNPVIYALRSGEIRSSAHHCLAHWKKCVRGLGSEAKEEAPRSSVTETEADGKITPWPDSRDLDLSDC
Experiment [17] has as its target Cannabinoid receptor 1 (Homo sapiens, UniProt P21554). Briefly: SAR analysis of antagonists of the Cannabinoid Receptor 1 using an Image-Based Assay. [Related pubchem assays (depositor defined):AID1961, AID1965]. It counts as functional.
Experiment [18] deals with T6, G-protein coupled receptor 55 (Homo sapiens, UniProt Q9Y2T6). Briefly: SAR analysis of selective Agonists of GPR55 using an Image-Based Assay. [Related pubchem assays (depositor defined):AID1961, AID1965]. It counts as functional.
T6 sequence (Q9Y2T6 whole entry): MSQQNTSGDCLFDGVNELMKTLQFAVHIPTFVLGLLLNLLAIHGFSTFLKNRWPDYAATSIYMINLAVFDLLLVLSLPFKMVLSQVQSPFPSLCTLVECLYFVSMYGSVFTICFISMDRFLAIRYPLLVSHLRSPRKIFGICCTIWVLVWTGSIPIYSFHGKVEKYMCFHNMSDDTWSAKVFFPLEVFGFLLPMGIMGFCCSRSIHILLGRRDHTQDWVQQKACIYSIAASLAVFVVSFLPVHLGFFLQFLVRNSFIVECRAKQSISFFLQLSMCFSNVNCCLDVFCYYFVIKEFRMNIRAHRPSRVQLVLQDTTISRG
In experiment [19] the target is T7, Tyrosine-protein phosphatase non-receptor type 7 (Homo sapiens, UniProt P35236).
T7 sequence (P35236 whole entry): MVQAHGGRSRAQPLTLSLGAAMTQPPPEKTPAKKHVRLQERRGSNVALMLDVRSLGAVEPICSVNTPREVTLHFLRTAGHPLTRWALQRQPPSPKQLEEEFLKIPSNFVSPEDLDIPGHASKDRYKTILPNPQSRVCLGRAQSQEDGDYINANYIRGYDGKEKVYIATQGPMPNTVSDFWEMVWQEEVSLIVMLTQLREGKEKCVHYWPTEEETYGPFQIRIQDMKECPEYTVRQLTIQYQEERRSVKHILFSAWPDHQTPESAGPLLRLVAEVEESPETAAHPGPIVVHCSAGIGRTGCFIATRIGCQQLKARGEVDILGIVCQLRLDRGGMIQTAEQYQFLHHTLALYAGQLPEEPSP
Briefly: SAR analysis of chemical inhibitors of HePTP using a Fluorescent assay - Set 2. [Related pubchem assays (depositor defined):AID1059, AID1077, AID1661, AID2085, AID521]. It counts as functional.

In experiment [20] the target is T5, Cannabinoid receptor 2. Nature of the experiment: SAR analysis of agonists of the Cannabinoid Receptor 2 using an Image-Based Assay - Set 2. [Related pubchem assays (depositor defined):AID1961, AID1965]. It counts as functional.
Experiment [21] concerns the target T6, G-protein coupled receptor 55. Briefly: selective activators of receptor GPR55 – imaging, U2OS cells, beta-arrestin-GFP redistribution, primary screen (AID 1961). It counts as functional.
The target of experiment [22] is Dual specificity protein phosphatase 3 (Homo sapiens, UniProt P51452). Nature of the experiment: SAR VHR1 Fluorescent Assay for In Vitro dose response studies Set 2. [Related pubchem assays (depositor defined):AID1654, AID1661, AID1878]. It counts as functional.
Sequence of Dual specificity protein phosphatase 3 (P51452 whole entry): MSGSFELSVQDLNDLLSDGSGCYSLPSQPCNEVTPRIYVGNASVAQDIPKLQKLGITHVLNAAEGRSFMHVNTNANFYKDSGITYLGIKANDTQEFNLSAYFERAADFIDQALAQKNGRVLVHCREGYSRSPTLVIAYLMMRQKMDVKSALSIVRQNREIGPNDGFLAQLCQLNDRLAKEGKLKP

Sequence of Delta-type opioid receptor (P41143 whole entry): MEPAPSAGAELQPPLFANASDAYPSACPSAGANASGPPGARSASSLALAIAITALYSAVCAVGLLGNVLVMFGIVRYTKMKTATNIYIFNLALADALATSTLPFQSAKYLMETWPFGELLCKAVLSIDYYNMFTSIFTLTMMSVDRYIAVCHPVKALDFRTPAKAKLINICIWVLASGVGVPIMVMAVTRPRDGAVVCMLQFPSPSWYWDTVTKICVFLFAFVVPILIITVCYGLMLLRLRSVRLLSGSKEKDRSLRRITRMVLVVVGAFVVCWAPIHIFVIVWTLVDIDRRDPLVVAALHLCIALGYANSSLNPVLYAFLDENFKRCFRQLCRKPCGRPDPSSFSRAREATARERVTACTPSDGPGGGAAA
Sequence of Sphingosine 1-phosphate receptor 2 (O95136 whole entry): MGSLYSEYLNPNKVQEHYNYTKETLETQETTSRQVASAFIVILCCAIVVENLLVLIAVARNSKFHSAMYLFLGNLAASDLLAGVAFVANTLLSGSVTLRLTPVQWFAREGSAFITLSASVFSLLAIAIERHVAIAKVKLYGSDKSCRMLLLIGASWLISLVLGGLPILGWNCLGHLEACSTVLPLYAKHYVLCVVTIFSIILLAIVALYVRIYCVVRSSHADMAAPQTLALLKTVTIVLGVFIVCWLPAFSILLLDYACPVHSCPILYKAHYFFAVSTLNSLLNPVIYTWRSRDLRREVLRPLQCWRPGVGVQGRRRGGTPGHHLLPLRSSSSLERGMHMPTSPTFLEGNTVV
Sequence of Intestinal-type alkaline phosphatase (Mus musculus, UniProt P24822) (P24822 whole entry): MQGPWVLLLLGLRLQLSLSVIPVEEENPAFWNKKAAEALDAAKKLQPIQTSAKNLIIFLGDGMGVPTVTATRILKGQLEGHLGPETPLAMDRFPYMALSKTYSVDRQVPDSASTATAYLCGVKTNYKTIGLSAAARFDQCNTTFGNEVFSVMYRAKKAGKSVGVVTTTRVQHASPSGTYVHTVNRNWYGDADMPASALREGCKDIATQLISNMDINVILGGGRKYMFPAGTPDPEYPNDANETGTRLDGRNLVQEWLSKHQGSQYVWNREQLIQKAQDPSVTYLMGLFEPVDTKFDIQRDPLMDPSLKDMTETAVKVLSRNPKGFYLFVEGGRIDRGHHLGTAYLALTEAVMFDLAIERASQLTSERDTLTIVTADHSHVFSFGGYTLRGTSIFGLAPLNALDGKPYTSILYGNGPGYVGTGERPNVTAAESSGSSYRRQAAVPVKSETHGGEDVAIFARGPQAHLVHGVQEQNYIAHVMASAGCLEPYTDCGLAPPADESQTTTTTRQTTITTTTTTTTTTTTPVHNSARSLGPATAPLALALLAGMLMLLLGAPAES
Sequence of Cannabinoid receptor 1 (P21554 whole entry): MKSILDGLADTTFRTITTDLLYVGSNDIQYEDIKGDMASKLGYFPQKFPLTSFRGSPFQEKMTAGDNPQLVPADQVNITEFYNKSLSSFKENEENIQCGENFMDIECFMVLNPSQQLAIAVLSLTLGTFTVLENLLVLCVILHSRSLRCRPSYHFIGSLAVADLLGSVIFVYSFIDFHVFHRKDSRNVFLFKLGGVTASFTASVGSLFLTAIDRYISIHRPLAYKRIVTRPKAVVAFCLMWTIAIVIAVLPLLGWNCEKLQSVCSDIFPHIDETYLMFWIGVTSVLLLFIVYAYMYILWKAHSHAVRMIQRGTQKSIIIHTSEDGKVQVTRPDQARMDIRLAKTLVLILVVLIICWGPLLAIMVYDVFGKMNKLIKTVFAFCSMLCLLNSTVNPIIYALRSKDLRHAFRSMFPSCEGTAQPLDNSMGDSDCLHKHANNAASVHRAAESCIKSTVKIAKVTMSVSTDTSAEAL

Broadly, the EC50 is the concentration that produces a half-maximal response. For `N#Cc1ccc(CSc2nnc(-c3ccccn3)n2Cc2cccs2)cc1`, the EC50 in [1] was > 64 µM (inactive); in experiment [2] it was > 32 µM (inactive); in experiment [3], 3.52 µM (active); in [4] it was 4.64 µM (active).
The AC50 is the concentration at which the activity in the assay is half-maximal. Turning to `CCC(C(=O)NCCCc1ccccc1)c1ccccc1` (configuration not stated), the concentration at half-maximal activity (AC50) in experiment [5] was 3.73 µM (active).
By IC50 is commonly meant the concentration needed to halve the response being measured. Turning to `NS(=O)(=O)c1ccc(N/N=C2\C(=O)Nn3c2nc2c(c3=O)CCCC2)cc1`, the half-maximal inhibitory concentration (IC50) in [6] was 13.2 µM (active); in experiment [7], 9.28 µM (active); in experiment [8] it was 21.2 µM (active); in experiment [9], 23.6 µM (active).
`Clc1ccc2nc(N3CCNCC3)nc(-c3ccccc3)c2c1`: the EC50 in [10] is 8.03 µM (active); in [11], 4.64 µM (active); in experiment [12], > 49.8 µM (inactive); in experiment [13] it was > 49.8 µM (not active); in experiment [14], 5.96 µM (active); in [15], 1.34 µM (active).
Regarding `C=CCN(CC=C)S(=O)(=O)c1ccc(NC(=S)NC(=O)c2ccc(-c3ccccc3)cc2)cc1`, the IC50 in [16] is > 32 µM (inactive); in experiment [17], > 32 µM (inactive); in experiment [19], > 100 µM (inactive); in experiment [22], > 100 µM (inactive). For the same compound, the EC50 in experiment [18] was 0.2 µM (active); in experiment [20], > 32 µM (inactive); in experiment [21], < 0.5 µM (active).
